Laboratory results from ChEMBL document CHEMBL1275563, “Genetic characterization of Vga ABC proteins conferring reduced susceptibility to pleuromutilins in Staphylococcus aureus” (2008).
In brackets after ≈: the same amount, converted by molar mass. Numbered stars: 1 amine (or outer) side, 2 acyl side, 3 side chain; on linkers, the order of the positions; unused ones are H or OH. Bridge positions count the residues as written; N and C are the ends. Square brackets hold non-standard residues; d marks the D form. Peptide text beside a SMILES is read from it. * marks the point of attachment. X1 = O=C1C[C@@H](C(=O)[*:2])N([*:1])C[C@H]1CS[C@@H]1CN2CCC1CC2; NMePhe(4-NMe2) = CN[C@@H](Cc1ccc(N(C)C)cc1)C(=O)O; Picolinoyl(3-OH) = O=C(c1ncccc1O)*; Phg = N[C@H](C(=O)O)c1ccccc1; dAbu = CC[C@@H](N)C(=O)O

Assays:
Staphylococcus aureus [1] = experiment: Antimicrobial activity against Staphylococcus aureus RN4220; assay type: functional
Staphylococcus aureus [2] = experiment: Antimicrobial activity against Staphylococcus aureus RN1024; assay type: functional
Staphylococcus aureus [3] = experiment: Antimicrobial activity against Staphylococcus aureus RN1024-tms; assay type: functional
Staphylococcus aureus [4] = experiment: microbe, parasite or virus in culture; details: ATCC 29213
Description: Antimicrobial activity against Staphylococcus aureus ATCC 29213

Staphylococcus aureus [5] = experiment: Antimicrobial activity against Staphylococcus aureus RN4220 harboring vgaAv positive plasmid CU1
Staphylococcus aureus [6] = experiment: Antimicrobial activity against Staphylococcus aureus RN4220 harboring plasmid VGA
Staphylococcus aureus [7] = experiment: Antimicrobial activity against Staphylococcus aureus RN4220 harboring plasmid CU1
Staphylococcus aureus [8] = experiment: Antimicrobial activity against Staphylococcus aureus IV20204009 harboring vgaAv positive Tn5406 transposon; assay type: functional
Staphylococcus aureus [9] = experiment: Antimicrobial activity against Staphylococcus aureus IV20205004 harboring vgaAv positive Tn5406 transposon; assay type: functional
Staphylococcus aureus [10] = experiment: Antimicrobial activity against Staphylococcus aureus IV20217008 harboring vgaAv positive Tn5406 transposon; assay type: functional
Staphylococcus aureus [11] = experiment: Antimicrobial activity against Staphylococcus aureus IV20217033 harboring vgaA positive plasmid VGA; assay type: functional
Staphylococcus aureus [12] = experiment: Antimicrobial activity against Staphylococcus aureus IV20222009 harboring vgaAv positive Tn5406 transposon; assay type: functional
Staphylococcus aureus [13] = experiment: Antimicrobial activity against Staphylococcus aureus IHMA127277 harboring vgaAv positive Tn5406 transposon; assay type: functional

Compound	MIC (Staphylococcus aureus [1]) [µg/mL]	MIC (Staphylococcus aureus [2]) [µg/mL]	MIC (Staphylococcus aureus [3]) [µg/mL]	MIC (Staphylococcus aureus [4]) [µg/mL]	MIC (Staphylococcus aureus [5]) [µg/mL]	MIC (Staphylococcus aureus [6]) [µg/mL]	MIC (Staphylococcus aureus [7]) [µg/mL]	MIC (Staphylococcus aureus [8]) [µg/mL]	MIC (Staphylococcus aureus [9]) [µg/mL]	MIC (Staphylococcus aureus [10]) [µg/mL]	MIC (Staphylococcus aureus [11]) [µg/mL]	MIC (Staphylococcus aureus [12]) [µg/mL]	MIC (Staphylococcus aureus [13]) [µg/mL]
CO[C@H]1/C=C/O[C@@]2(C)Oc3c(C)c(O)c4c(O)c(c(/C=N/N5CCN(C)CC5)c(O)c4c3C2=O)NC(=O)/C(C)=C\C=C\[C@H](C)[C@H](O)[C@@H](C)[C@@H](O)[C@@H](C)[C@H](OC(C)=O)[C@@H]1C [RIFAMPIN]	≤ 0.06	> 64	> 64	< 0.06	–	–	–	–	–	–	–	–	–
CC(=O)NC[C@H]1CN(c2ccc(N3CCOCC3)c(F)c2)C(=O)O1 [LINEZOLID]	–	–	–	–	1 (≈ 2.96 µM)	–	–	–	–	–	–	–	–
CCC[C@@H]1C[C@@H](C(=O)N[C@@H]([C@H]2O[C@H](SC)[C@H](O)[C@@H](O)[C@H]2O)[C@H](C)Cl)N(C)C1 [CLINDAMYCIN]	0.06 (≈ 0.141 µM)	0.25 (≈ 0.588 µM)	0.06 (≈ 0.141 µM)	0.125 (≈ 0.294 µM)	2 (≈ 4.71 µM)	4 (≈ 9.41 µM)	0.06 (≈ 0.141 µM)	–	–	–	–	–	–
O=C(N[C@H](CO)[C@H](O)c1ccc([N+](=O)[O-])cc1)C(Cl)Cl [CHLORAMPHENICOL]	8 (≈ 24.8 µM)	8 (≈ 24.8 µM)	8 (≈ 24.8 µM)	16 (≈ 49.5 µM)	> 64	8 (≈ 24.8 µM)	> 64	–	–	–	–	–	–
CCC[C@@H]1C[C@@H](C(=O)N[C@@H]([C@H]2O[C@H](SC)[C@H](O)[C@@H](O)[C@H]2O)[C@@H](C)O)N(C)C1 [LINCOMYCIN]	0.5 (≈ 1.23 µM)	8 (≈ 19.7 µM)	1 (≈ 2.46 µM)	2 (≈ 4.92 µM)	32 (≈ 78.7 µM)	32 (≈ 78.7 µM)	0.5 (≈ 1.23 µM)	–	–	–	–	–	–
CC[C@H]1OC(=O)[C@H](C)[C@@H](O[C@H]2C[C@@](C)(OC)[C@@H](O)[C@H](C)O2)[C@H](C)[C@@H](O[C@@H]2O[C@H](C)C[C@H](N(C)C)[C@H]2O)[C@](C)(O)C[C@@H](C)C(=O)[C@H](C)[C@@H](O)[C@]1(C)O [ERYTHROMYCIN]	0.25 (≈ 0.341 µM)	0.25 (≈ 0.341 µM)	0.25 (≈ 0.341 µM)	0.5 (≈ 0.681 µM)	0.125 (≈ 0.17 µM)	0.25 (≈ 0.341 µM)	0.25 (≈ 0.341 µM)	–	–	–	–	–	–
CC[C@H]1NC(=O)[C@@H](NC(=O)c2ncccc2O)[C@@H](C)OC(=O)[C@H](c2ccccc2)NC(=O)[C@@H]2CC(=O)[C@H](CS[C@@H]3CN4CCC3CC4)CN2C(=O)[C@H](Cc2ccc(N(C)C)cc2)N(C)C(=O)[C@@H]2CCCN2C1=O [QUINUPRISTIN] ({Picolinoyl(3-OH)}-T[dAbu]P[NMePhe(4-NMe2)][X1][Phg]; ester 1-C)	4 (≈ 3.91 µM)	4 (≈ 3.91 µM)	4 (≈ 3.91 µM)	4 (≈ 3.91 µM)	1 (≈ 0.978 µM)	4 (≈ 3.91 µM)	4 (≈ 3.91 µM)	–	–	–	–	–	–
CN(C)[C@@H]1C(O)=C(C(N)=O)C(=O)[C@@]2(O)C(O)=C3C(=O)c4c(O)cccc4[C@@](C)(O)[C@H]3C[C@@H]12 [TETRACYCLINE]	0.25 (≈ 0.563 µM)	64 (≈ 144 µM)	64 (≈ 144 µM)	0.5 (≈ 1.13 µM)	0.125 (≈ 0.281 µM)	–	0.25 (≈ 0.563 µM)	–	–	–	–	–	–
C/C(=C\C(=O)OCCCCCCCCC(=O)O)C[C@@H]1OC[C@H](C[C@@H]2O[C@H]2[C@@H](C)[C@H](C)O)[C@@H](O)[C@H]1O [MUPIROCIN]	≤ 0.06	0.25 (≈ 0.499 µM)	0.25 (≈ 0.499 µM)	0.25 (≈ 0.499 µM)	–	–	–	–	–	–	–	–	–
C=C[C@]1(C)C[C@@H](OC(=O)CS[C@@H]2C[C@H]3CC[C@@H](C2)N3C)[C@]2(C)[C@H](C)CC[C@]3(CCC(=O)[C@H]32)[C@@H](C)[C@@H]1O [RETAPAMULIN]	≤ 0.06	2 (≈ 3.86 µM)	≤ 0.06	≤ 0.06	32 (≈ 61.8 µM)	32 (≈ 61.8 µM)	–	2 (≈ 3.86 µM)	2 (≈ 3.86 µM)	4 (≈ 7.73 µM)	64 (≈ 124 µM)	4 (≈ 7.73 µM)	2 (≈ 3.86 µM)
C=C[C@]1(C)C[C@@H](OC(=O)CSCCN(CC)CC)[C@]2(C)[C@H](C)CC[C@]3(CCC(=O)[C@H]32)[C@@H](C)[C@@H]1O [TIAMULIN]	0.5 (≈ 1.01 µM)	16 (≈ 32.4 µM)	0.5 (≈ 1.01 µM)	1 (≈ 2.03 µM)	> 64	> 64	0.25 (≈ 0.506 µM)	32 (≈ 64.8 µM)	16 (≈ 32.4 µM)	32 (≈ 64.8 µM)	> 64	16 (≈ 32.4 µM)	–
GENTAMICIN	1	> 64	> 64	–	–	–	–	–	–	–	–	–	–
C[C@H]1COc2c(N3CCN(C)CC3)c(F)cc3c(=O)c(C(=O)O)cn1c23.C[C@H]1COc2c(N3CCN(C)CC3)c(F)cc3c(=O)c(C(=O)O)cn1c23.O [LEVOFLOXACIN]	0.125	16	32	0.125	0.125	0.125	0.125	–	–	–	–	–	–
CCN(CC)CCS(=O)(=O)[C@@H]1CCN2C(=O)c3coc(n3)CC(=O)C[C@H](O)/C=C(C)/C=C/CNC(=O)/C=C/[C@@H](C)[C@@H](C(C)C)OC(=O)[C@@H]12 [DALFOPRISTIN]	4 (≈ 5.79 µM)	64 (≈ 92.6 µM)	8 (≈ 11.6 µM)	8 (≈ 11.6 µM)	64 (≈ 92.6 µM)	32 (≈ 46.3 µM)	4 (≈ 5.79 µM)	–	–	–	–	–	–
COc1cc(Cc2cnc(N)nc2N)cc(OC)c1OC [TRIMETHOPRIM]	2 (≈ 6.89 µM)	2 (≈ 6.89 µM)	2 (≈ 6.89 µM)	2 (≈ 6.89 µM)	2 (≈ 6.89 µM)	2 (≈ 6.89 µM)	2 (≈ 6.89 µM)	–	–	–	–	–	–
